Holding throughout (format): in vivo, Nicotiana tabaccum cv. W38
The test system of series [1] is sporamin promoter fused to the GUS reporter gene. The series can be described thus: Pspoa-GUS activity in response to elicitors sprayed onto leaves (fluorometric GUS assay). The settings on record: for effect on the sporamin promoter function (in words): treatment alone. How it is done: The plasmid was transformed into tobacco cells (Nicotiana tabaccum cv. W38) using Agrobacterium tumefaciens LBA4404 in the leaf disc method (Hörsch et al. (1985). Science 227:1229–1231). […] Two lines, Tspoa11 and Tspoa37 were selected for further analysis. GUS activity was measured in the leaves of plants obtained from these lines as follows. A middle leaf of the mature tobacco plant was injured with a scissors. Two hours later, wounded and unwounded leaves were harvested, mixed with GUS extraction buffer (50 mM sodium phosphate, pH 7.0, 10 mM EDTA, 10 mM β-mercaptoethanol, 0.1% sodium lauryl sarcosine, 0.1% Triton X-100), frozen, and grounded into a fine powder with a mortar and pestle while in liquid nitrogen. The sample was thawed and centrifuged at 12,000×g for 10 minutes at 4° C. The total protein content was determined using the method of Bradford ((1976) Anal. Biochem. 72:248–254). GUS activity was measured in a fluorometric assay by the addition of 4-methylumbelliferyl-β-D-glucuronide substrate and monitoring the reaction in a […] to determine […] of activity following the method of Jefferson ((1987) EMBO J 6:3901–3908).
The activity the Pspoa-GUS fusion was monitored in response to spraying with the elicitor, methyl jasmonate. Solutions of 50 μM and 100 μM methyl jasmonate were prepared and sprayed onto leaves using a commercial atomizer. Sodium phosphate buffer, pH 7.0, was used as a control solution.
The activity of the sporamin promoter fused to the GUS reporter gene was monitored in response to abscisic acid (ABA). Solutions of 100 μM and 200 μM ABA were prepared and sprayed onto leaves using a commercial atomizer.

Series [2] shares this test system. The series is described as above. The settings on record: 1 mM sprayed onto leaves of Pspoa-GUS tobacco.
The subject of another series is GUS reporter gene. The series can be described thus: Pspoa-GUS activity in response to leaf wounding (fluorometric GUS assay). The text has this: To analyze the properties of the sporamin promoter, the promoter was operably linked to the reporter gene β-glucuronidase (GUS). The plasmid pBI101 is a Ti plasmid binary vector harboring the GUS gene in a form lacking a promoter (Clontech, Palo Alto Calif.). The sporamin promoter was excised with the restriction endonucleases XbaI and BamHI, isolated, and ligated into compatible sites of a restricted pBI101 nucleic acid. The resulting plasmid construct, termed pBI101/Pspoa, was verified by restriction mapping and nucleic acid sequencing.
Two lines, Tspoa11 and Tspoa37 were selected for further analysis. GUS activity was measured in the leaves of plants obtained from these lines as follows. A middle leaf of the mature tobacco plant was injured with a scissors. Two hours later, wounded and unwounded leaves were harvested, mixed with GUS extraction buffer (50 mM sodium phosphate, pH 7.0, 10 mM EDTA, 10 mM β-mercaptoethanol, 0.1% sodium lauryl sarcosine, 0.1% Triton X-100), frozen, and grounded into a fine powder with a mortar and pestle while in liquid nitrogen. The sample was thawed and centrifuged at 12,000×g for 10 minutes at 4° C.
GUS activity was monitored as described above at various intervals after leaf wounding.

Setting [3] is: 100 μM sprayed onto leaves of Pspoa-GUS tobacco.
[4] abbreviates: 200 μM sprayed onto leaves of Pspoa-GUS tobacco.

For `CC1=CC(=O)CC(C)(C)[C@@]1(O)/C=C/C(C)=C\C(=O)O` [ABA, abscisic acid], the GUS activity was found to be 170 nmole MU/min/mg protein in series [1] (setting [3]) and 60 nmole MU/min/mg protein in series [1] (setting [4]). In addition, the “induction of the sporamin promoter (in words)” value in series [1] (100 μM, fluorometric assay) is “potent inducer”.

In the case of `CC/C=C\CC1C(=O)CCC1CC(=O)OC` (stereo not shown) [methyl jasmonate], the GUS activity in series [1] (50 μM sprayed onto leaves of Pspoa-GUS tobacco) is recorded as 420 nmole MU/min/mg protein; in series [1] (setting [3]), 225 nmole MU/min/mg protein. The figures for the GUS activity increase in series [1] (two hours after spraying with 50 μM) and in series [1] (two hours after spraying with 100 μM) were 37 fold and 20 fold, respectively.

As to `O=C(O)c1ccccc1O` [SA, salicylic acid], the GUS activity in series [2] turned out to be 21 nmole MU/min/mg protein; in series [1] (setting [4]) it was 15 nmole MU/min/mg protein. Further, the “sporamin promoter activity when treatment precedes wounding or methyl jasmonate treatment (in words)” value in series [1] (pre-treatment before wounding / methyl jasmonate) is reported as “less sporamin promoter activity was observed”. In addition, the “effect on the sporamin promoter function (in words)” value in series [1] was “no effect”.

In the case of `C=C` [ethylene], the “effect on the sporamin promoter function (in words)” value in series [1] is “no effect”.

B1: sporamin promoter: 1.25 kb sweet potato (Ipomoea batatas) sporamin promoter sequence, SEQ ID NO:1 (nucleic acid)
DNA: CGACGGCCCGGGCTAGGTCAAGTAACCCGAACTTGGTCAAGTTTGTTATAACTTATTCTCCCTTTTTCGTGAGGGCGGTTAGGGGACTTAGTATAAATAGGAGTGTAATCGGGCTTGTTAAGACATATTGAACTCACCTGTAATAGCATTACATTTCTCGTAAATACGTACAATATCCTTGTCTTTCCAATAACATTTTTGTCTTTTACCATTATCTTTTATCCAATCCTTTAATTATCGAGTTTGTTAATTCAGATCACCCAAATTAATTAAATCCATCATTTGGATTAAGTTATCTTACTTTACTAATTAGAGTTTTTATCTTCAGAGGAAGGAAGAAGAAAATTAATTGACATGACTCTCATCGGGTTGCACTCCACCCATTATGTTATACAATGCAAACTCTTTTAAAATAAATTAAAATTATATATATATATAATAGTGCAACCTACATCACTTTTTCAATGTGGGACGAAAGCACCTTCAAAAGTCTTTCGAACCCCATTTTTCCTCGAATATATTTTGAGAATCAATTTCTCAATTAATCATTATTATCCATCTTCGTGTACATATATAATATATATATCACATTAAACATCTAACTTAGAAGAACTCAAATTTATTTTTAACTCTACTTATATCAAAAGTGGACTCTACTGAAAATTATACCACAAAATGATATTTTAAACGTTATATTTAACAAAAATTTCTGACATTATCTTATTTAATCTTCTACTAGTTAGAATAATAAAACAAATTTCACTCATAACATAAATTTAAATAGTGATCGTGAATTTTTACGGAAATTAATCAAATAATTGTATGTAATAATGTAATGTAATGAATTTTGATGATGGGTAAAATGTATTTTAATTATTACACGACTTGCCTTCTTTAATTTGTTCTTAGGATCCTAGACTTCATCCCTGCATAGCAAAACCATTGGACACTTGGACGGCCACAAATCATTTCTATTTTCTCCCAACTCCTCCTGTCAGCATGGGATCATTATCAACTTTATCTCATCCCATTACACACCGTAAGTGTACCATCCATCGCTCAATCACTGTATACTTAAATCTCCAGATTAAGTCACTAAATAACTGTGTTGGACTGTGAAAACTTTGAGTAAAAAAAGGCAAAATACTCTTAAAACTGTACAAAAAACAATAATTCAACCCTTACTCTTGTTGTCTATAAATTGGATGCATGAGAGCTCAACACAACACAACACCACCAACAAATTAAACATCATTACCTCTTAGCTTTTCTCCCAAGTTGTC
modifications: Ipomoea batatas
Consider B1, for which, in the series with GUS reporter gene (leaf wounding), the “time GUS expression remained above 250 nmole MU/min/mg after wounding” value is recorded as “at least 50 hours” and the “time to induction of GUS expression after wounding” value is at most 15 min. Further, the “maximum GUS expression level over the uninduced (unwounded) level” value in the series with GUS reporter gene (maximum at 12 hours after wounding) turned out to be 16 fold. In addition, the “level of GUS expression after leaf wounding” value in the series with GUS reporter gene (within 2 hours of wounding) is on record as “over 250 nmole MU/min/mg of protein”.

For the origin of these results see patent US7041815B2, “Sporamin promoter and uses thereof” (Sinon Corporation, priority 2001, dated 2006).
